Results published in PMC7146288, “Microwave Assisted Synthesis of 4-Phenylquinazolin-2(1H)-one Derivatives that Inhibit Vasopressor Tonus in Rat Thoracic Aorta” (Molecules, 2020).
“Also recorded” adds a separate entry of the source.

What was measured:
[1] = system: rat thoracic aorta rings, endothelium-intact (E+); assay: Vascular reactivity: vasorelaxation in endothelium-intact (E+) aortic rings pre-contracted with Phe 1 µM; design: species or system Male Wistar normotensive rats (Rattus norvegicus); details: for IC50: Rattus norvegicus, rings pre-contracted with Phe 1 µM, cumulative 1-30 µM, mean ± SEM, read-out: IC50 vasorelaxation response in endothelium-intact (E+) aorta arterial vessels; for relaxation at the highest concentration: 30 μM, endothelium-intact aorta rings pre-contracted with Phe 1 µM
Method: (§1) All compounds were dissolved with DMSO 100% to obtain a stock solution of 10 mM. In all experiments, the stock solution was employed to obtain a final concentration diluted in Krebs Henseleit solution (vascular reactivity assay) and DMEM supplemented with 10% FBS (cytotoxicity assay).
Male Wistar normotensive rats (Rattus norvegicus) weighing between 200 and 300 grams were supplied by the Central Animal Facility of Fluminense Federal University (NAL-UFF) (Rio de Janeiro, Brazil). The animals were kept in standard environmental conditions of temperature (22 ± 1 °C) and 12 h light/dark cycle, with free access to food (Purina, Brazil) and water. All experiments were conducted in accordance to the guidelines established by National Council for Animal Experimentation Control (CONCEA, Brazil). This study was approved by the Ethics Committee in the Use of Animals of the Fluminense Federal University (CEUA-UFF), certificate under protocol number: 795/2017.
(§2) Animals were anesthetized by isoflurane (1% mg/kg) inhalation and, after the loss of motor control, rats were euthanized by cervical dislocation. Subsequently, the thoracic aorta was dissected and cleaned of connective tissue to obtain rings 4 mm in length that were suspended in a 15 mL organ bath (Panlab four chamber organ bath, AD-Instruments, Sydney, Australia). Tissues were kept in Krebs Henseleit solution at 37 °C with the following composition (mM): NaCl 120; KCl 5.0; MgCl2 1.1; CaCl2 2.5; NaH2PO4 1.2; N-[2-hydroxyethyl] piperazine-N’-[2-ethane-sulfonic acid] (HEPES) 10; NaHCO3 15; and glucose 11, bubbled constantly with a gas mixture of 95% O2 and 5% CO2 (pH 7.4). Each arterial segment was suspended between two steel hooks connected to an isometric transducer to measure tension through a data acquisition system (PowerLab 8 and LabChart Pro, AD-Instruments, Australia). […] Functional endothelial integrity was assessed by the ability of 10 µM ACh to induce ≥70% relaxation in vessels pre-contracted with 1 µM Phe.
Values are expressed as mean ± standard error of mean (SEM). A P-value less than 0.05 was termed statistically significant. The IC50 values (defined as the concentration of the test compound that reduced 50% of the maximal contraction) were obtained by actual concentration-response curve fitting using GraphPad Prism 6.0 software (GraphPad Software, San Diego, CA). Statistical significance was determined using Bonferroni´s multiple comparison for vascular reactivity experiments and using Turkey´s multiple comparison for cytotoxicity evaluation following two-way analysis of variance (ANOVA).
Figure 3 Concentration-response curves for compounds 2a–f and control (vehicle: DMSO) in intact endothelium aortic rings pre-contracted with Phe 1 µM. Cumulative concentrations (1 µM, 3 µM, 10 µM and 30 µM) were added to the Phe contraction plateau. DMSO was employed at the same volume used to dissolve the compound stock solution (maximum final concentration at 0.3%). All data are expressed as mean ± standard error of the mean (SEM) (n = 4–5). (* P < 0.05; *** P < 0.001; **** P < 0.0001 compound vs. control).

[2] = MTT cell viability (cytotoxicity) assay; assay type: cell-based, African Green monkey (Cercopithecus aethiops); details: African green monkey (Cercopithecus aethiops), VERO kidney cells, 48 h exposure, % of vehicle control, read-out: percentage of cell viability (living cells)
Method: as §1
(§3) A 3-[4,5-dimehyl-2-thiazolyl]-2,5-diphenyl-2H-tetrazoliumbromide (MTT) assay was employed to assess the general cytotoxicity for 4-phenylquinazolin-2(1H)-one derivatives. […]
(§4) The MTT cell viability assay investigates the number of viable cells by measuring the mitochondrial-dependent reduction of water-soluble tetrazolium into an insoluble formazan product. The absorbance obtained is directly proportional to the activity of functional mitochondria and represents the number of viable cells. […] Absorbance was measured with a plate reader (SpectraMax 190, CA, USA) at a wavelength of 550 nm and expressed as a percentage of the control (vehicle).
(§5) Figure 5 Cell viability assessed by the MTT method on the VERO cell line after 48 h of exposure to the compounds. […] All data are expressed as mean ± standard error of the mean (SEM) (n = 22–25). […]

VERO cells = assay: MTT cell viability (cytotoxicity) assay; assay type: cell-based, African Green monkey (Cercopithecus aethiops); details: 30 µM, 48 h exposure
Method: as §1, §3, §4, §5

[3] = system: rat thoracic aorta rings, endothelium-denuded (E−); assay: Vascular reactivity: vasorelaxation in endothelium-denuded (E−) aortic rings pre-contracted with Phe 1 µM; design: species or system Male Wistar normotensive rats (Rattus norvegicus); details: endothelium-denuded rings pre-contracted with Phe 1 µM; cumulative up to 30 µM
Method: A representative record of cumulative concentrations of compound 2f (1 μM, 3 μM, 10 μM and 30 μM) on aortic rings endothelium-intact and endothelium-denuded pre-contracted with Phe 1 μM are shown in Figure 4. Phe induced a steady tone in both preparations that were greater in endothelium denuded rings.
as §2, with “7.4).” for “7.4). Each arterial segment was suspended between two steel hooks connected to an isometric transducer to measure tension through a data acquisition system (PowerLab 8 and LabChart Pro, AD-Instruments, Australia).”
Figure 4 Concentration-response curves of compound 2f in endothelium-intact (E+) and endothelium-denuded (E−) aortic rings pre-contracted with Phe 1 µM. […] All data are expressed as mean ± standard error of the mean (SEM) (n = 4). […]

Compound | IC50 [1] [µM] | viability at 48 h, 30 µM [2] [%] | cytotoxicity according to ISO 10993: 5 (viability below 70% = cytotoxic) (VERO cells) | relaxation at the highest concentration [1] | vasorelaxation in the absence of the endothelium [3]
O=c1nc(-c2ccccc2)c2ccccc2[nH]1 [Compound 2a] | 39.7 ± 6.77 | – | – | – | –
O=c1nc(-c2ccccc2)c2cc([N+](=O)[O-])ccc2[nH]1 [Compound 2b] | 16.4 ± 3.5 | 69 | cytotoxic; also recorded: induced cytotoxicity | – | –
Cc1ccccc1-c1nc(=O)[nH]c2ccc(Cl)cc12 [Compound 2c] | 4.31 ± 0.9 | – | – | around 90% | –
O=c1nc(-c2ccccc2F)c2cc(Cl)ccc2[nH]1 [Compound 2d] | 26.5 ± 8.98 | – | – | – | –
O=c1nc(-c2ccccc2)c2cc(Br)ccc2[nH]1 [Compound 2e] | 4.94 ± 1.21 | – | – | around 90% | –
Cn1c(=O)nc(-c2ccccc2)c2cc(Cl)ccc21 [Compound 2f] | 3.41 ± 0.65 | – | – | around 90% | abolished
